Data from paper PMC4750079, “Tackling amyloidogenesis in Alzheimer’s disease with A2V variants of Amyloid-β” (Scientific Reports, 2016).
Where a SMILES comes first, the peptide text is derived from it. [ ]: non-standard residue; d: D form.

Columns and labels:
Aβ1-42WT = biological target: T1, Aβ1-42WT (Homo sapiens, UniProt P05067); assay: CD spectroscopy of Aβ1-42WT secondary structure; assay type: biochemical; conditions: data not shown
T1 construct: Aβ1-42WT oligomers were formed following incubation of Aβ1-42WT at a final concentration of 100 μM; made in house; host or cells: chemical synthesis (solid-phase Fmoc), no expression host
T1 sequence (P05067 672-713 limits assumed): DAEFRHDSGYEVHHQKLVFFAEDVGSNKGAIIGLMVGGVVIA

OP50 E. coli = conditions: peptide 1 µg/µl, 24 h, 25 °C and 37 °C, MALDI TOF MS, small fraction cleaved at Gly 11
Protocol: (§1) The stability of Aβ1-6A2VTAT(D) peptide to protease digestion was also investigated. To this end, the peptide (1µg/µl) was incubated at 37 °C with 10 ng/µl of proteinase K and in the presence of OP50 E. coli. […] Samples were potted on a metallic plate (MTP 384 Ground Steel, Bruker) before and 24 h after incubation at 25 °C and 37 °C, and analyzed by MALDI TOF mass spectrometry (MS).

proteinase K = proteinase K (Parengyodontium album, UniProt P06873); conditions: peptide 1 µg/µl, 10 ng/µl proteinase K, 24 h, 25 °C and 37 °C, MALDI TOF MS; small fraction cleaved at Gly 11
Sequence of proteinase K (P06873 106-384, species assumed): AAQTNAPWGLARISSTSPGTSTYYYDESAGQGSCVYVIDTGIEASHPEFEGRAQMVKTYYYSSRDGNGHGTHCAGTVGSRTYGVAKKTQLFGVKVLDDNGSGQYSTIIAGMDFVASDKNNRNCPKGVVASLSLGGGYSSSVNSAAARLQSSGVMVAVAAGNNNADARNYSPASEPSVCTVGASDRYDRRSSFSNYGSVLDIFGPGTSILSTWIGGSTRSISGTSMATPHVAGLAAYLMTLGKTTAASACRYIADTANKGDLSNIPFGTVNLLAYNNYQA
Protocol: as §1

## CC(C)[C@@H](NC(=O)[C@H](N)CC(=O)O)C(=O)N[C@H](CCC(=O)O)C(=O)N[C@H](Cc1ccccc1)C(=O)N[C@H](CCCNC(=N)N)C(=O)N[C@H](Cc1c[nH]cn1)C(=O)NCC(=O)NCC(=O)NCC(=O)NCC(=O)NCC(=O)N[C@H](CCCNC(=N)N)C(=O)N[C@H](CCCCN)C(=O)N[C@H](CCCCN)C(=O)N[C@H](CCCNC(=N)N)C(=O)N[C@H](CCCNC(=N)N)C(=O)N[C@H](CCC(N)=O)C(=O)N[C@H](CCCNC(=N)N)C(=O)N[C@H](CCCNC(=N)N)C(=O)N[C@H](CCCNC(=N)N)C(=O)O [Aβ1-6A2VTAT(D)] (H-[dD][dV][dE][dF][dR][dH]GGGGG[dR][dK][dK][dR][dR][dQ][dR][dR][dR]-OH; N-terminus assumed)
Aβ1-42WT
  acquisition of β-sheet conformation by Aβ1-42WT: inhibits the acquisition of β-sheet conformation by Aβ1-42WT
OP50 E. coli
  resistance to digestion with bacteria proteases: largely resistant
Proteinase K
  resistance to digestion with proteinase K: largely resistant
